Data on 17 molecules can be found in patent US9783488B2 (CHDI Foundation, Inc., priority 2013, dated 2017).

Assay [1] has as its system cellular histone deacetylase enzymatic activity in Jurkat E6-1 cells. Put plainly: Inhibition of cellular HDAC activity in Jurkat E6-1 cells, fluorogenic substrate Boc-Lys(Tfa)-AMC. It counts as cell-based. The settings on record: Homo sapiens, read-out: Cell IC50. In short, it runs like this:
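Jurkat E6.1 cells (75,000/well) were pre-treated with compound for 2 h at 37 °C, then given Boc-Lys(Tfa)-AMC (5× stock 500 μM) for 3 h. Cells were lysed with trypsin-containing buffer overnight, and released AMC fluorescence was read at Ex 355/Em 460 nm over a 16-point dilution series.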

Assay [2] deals with human catalytic domain HDAC4 protein (amino acids 648-1032) (Homo sapiens (Human), UniProt P56524). The experiment in a line: Inhibition of HDAC4 catalytic domain enzymatic activity, fluorogenic substrate Boc-Lys(Tfa)-AMC. The settings on record: HDAC4 catalytic domain enzyme, read-out: Biochemical HDAC4 IC50.
human catalytic domain HDAC4 protein (amino acids 648-1032), sequence (P56524 648-1032): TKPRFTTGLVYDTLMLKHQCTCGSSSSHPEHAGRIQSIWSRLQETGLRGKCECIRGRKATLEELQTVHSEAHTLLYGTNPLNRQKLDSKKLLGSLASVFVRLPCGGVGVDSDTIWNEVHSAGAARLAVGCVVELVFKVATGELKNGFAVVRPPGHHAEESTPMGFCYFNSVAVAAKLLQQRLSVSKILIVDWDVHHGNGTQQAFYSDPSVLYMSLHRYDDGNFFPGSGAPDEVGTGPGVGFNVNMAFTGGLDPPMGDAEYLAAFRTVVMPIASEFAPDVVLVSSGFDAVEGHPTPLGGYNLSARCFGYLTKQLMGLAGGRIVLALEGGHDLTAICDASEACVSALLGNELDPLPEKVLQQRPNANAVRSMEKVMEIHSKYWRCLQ

By IC50 is commonly meant the point on the concentration scale where inhibition reaches its midpoint. Take `Cc1c(F)cccc1[C@@]1(C(=O)NO)CC[C@@H](c2cncc(F)c2)C1` (stereo in doubt) [Example 40, (1R,3R*)-1-(3-fluoro-2-methylphenyl)-3-(5-fluoropyridin-3-yl)-N-hydroxycyclopentanecarboxamide]: the IC50 amounted to 8.4 µM in assay [1] and 3.6 µM in assay [2].
In the case of `Cc1c(F)cccc1C1(C(=O)NO)CCC(c2cccnc2)C1` (stereo not shown) [Example 1, 1-(3-fluoro-2-methylphenyl)-N-hydroxy-3-(pyridin-3-yl)cyclopentanecarboxamide], the values for the half-inhibitory concentration (IC50) in assay [1] and in assay [2] were 1.23 µM and 0.19 µM, respectively.
For `O=C(NO)[C@]1(c2ccccc2)CC[C@@H](c2cncc(F)c2)CC1` [Example 13, (1 r,4r)-4-(5-fluoropyridin-3-yl)-N-hydroxy-1-phenylcyclohexanecarboxamide], in that order: 48.8 µM and 6.4 µM.
On to `O=C(NO)[C@]1(c2ccccc2)CC[C@H](c2cncc(F)c2)CC1` [Example 14, (1s,4s)-4-(5-fluoropyridin-3-yl)-N-hydroxy-1-phenylcyclohexanecarboxamide], for which the IC50 in assay [1] and in assay [2] was greater than 50 µM in each case.
For `O=C(NO)C1(c2cccc(F)c2F)CCCC1` [Example 15, 1-(2,3-difluorophenyl)-N-hydroxycyclopentanecarboxamide], the IC50 worked out at 18.5 µM in assay [1] and 2.5 µM in assay [2].
The matching figures for `O=C(NO)C1(c2cccc3c2OCC3)CCCC1` [Example 16, 1-(2,3-dihydrobenzofuran-7-yl)-N-hydroxycyclopentanecarboxamide]: greater than 50 µM and greater than 50 µM.
As for `Cc1c(Cl)cccc1C1(C(=O)NO)CCCC1` [Example 17, 1-(3-chloro-2-methylphenyl)-N-hydroxycyclopentanecarboxamide], the values for the IC50 in assay [1] and in assay [2] were 2.53 µM and 0.28 µM, respectively.
With `Cc1c(F)cccc1C1(C(=O)NO)CCCC1` [Example 18, 1-(3-fluoro-2-methylphenyl)-N-hydroxycyclopentanecarboxamide], the IC50 in assay [1] is 1.7 µM; in assay [2], 0.27 µM.
For `O=C(NO)C1(c2ccccc2F)CCCC1` [Example 19, 1-(2-fluorophenyl)-N-hydroxycyclopentanecarboxamide], in that order: 44.7 µM and 4.6 µM.
Regarding `O=C(NO)C1(c2ccc(Cl)cc2)CCCC1` [Example 20, 1-(4-chlorophenyl)-N-hydroxycyclopentanecarboxamide], the IC50 in assay [1] is greater than 50 µM; in assay [2], 24 µM.
For `O=C(NO)C1(c2ccccc2)CCCC1` [Example 21, N-Hydroxy-1-phenylcyclopentanecarboxamide], in that order: greater than 50 µM and 11.4 µM.
As to `O=C(NO)C1(c2c(F)cccc2Cl)CCCC1` [Example 22, 1-(2-Chloro-6-fluorophenyl)-N-hydroxycyclopentanecarboxamide], the IC50 amounted to 15.6 µM in assay [1] and 2.5 µM in assay [2].
For `COc1ccccc1C1(C(=O)NO)CCCC1` [Example 23, N-Hydroxy-1-(2-methoxyphenyl)cyclopentanecarboxamide], in that order: greater than 50 µM and greater than 50 µM.
For the molecule `Cc1ccccc1C1(C(=O)NO)CCCC1` [Example 24, N-Hydroxy-1-o-tolylcyclopentanecarboxamide], the results for the IC50 in assay [1] and in assay [2] were 8.12 µM and 0.73 µM, respectively.
The matching figures for `Cc1cccc(C2(C(=O)NO)CCCC2)c1` [Example 25, N-Hydroxy-1-m-tolylcyclopentanecarboxamide]: 43.7 µM and 8.2 µM.
For `O=C(NO)C1(c2ccccc2Cl)CCCC1` [Example 26, 1-(2-Chlorophenyl)-N-hydroxycyclopentanecarboxamide], in that order: 15.1 µM and 1.9 µM.
The matching figures for `N#Cc1ccccc1C1(C(=O)NO)CCCC1` [Example 27, 1-(2-Cyanophenyl)-N-hydroxycyclopentanecarboxamide]: greater than 50 µM and greater than 50 µM.
